Experimental data published in US20050170041A1, “Chewing gum compositions comprising monatin and methods for making same” (Cargill, Inc., priority 2003, published 2005).
Residues, ends and D or L forms follow the SMILES beside them.

Tests used:
[1] = Sensory evaluation of sweeteners in iced tea; format: in vivo; settings: 200 ml serving, aspartame 450 ppm, monatin 40 ppm, panel n=6; for Comments: sweetness and flavor profile: sucralose 170 ppm
Method: Monatin formulations, including R,R monatin or R,R monatin/erythritol combinations, were assessed relative to other known sweeteners (aspartame and sucralose) in iced tea. The key sensory parameters assessed included sweetness quality, aftertaste, bitter taste and its aftertaste. Qualitative evaluation has been carried out.
An ice tea formulation was developed to evaluate sweetener performance (Table 7).
Sweeteners were added to tea at the following concentrations:
The evaluation of ice tea drinks was carried out by a panel (n=6) of experienced sensory evaluators.

[2] = Sensory stability of monatin and aspartame at pH 2.5, 3.0, 4.0 at 40° C.; format: physicochemical; settings: for Rate constant (k) of sweetness loss: 40° C., pseudo-first order assumed; for Sweetness Retained: after 100 days storage at 40° C.; for SEV Aspartame / Retention of Aspartame Sweetness: stored at 40° C., aspartame 400 ppm
Method: The sensory stability of monatin solutions prepared at pH 2.5, 3.0 and 4.0 and stored at 40° C. was monitored for 100 days. Loss of sweetness from these solutions was compared with the losses of sweetness from aspartame solutions prepared and stored under identical conditions.
The sensory stability of monatin (8% SEV, ˜55 ppm, synthetic blend containing approximately 96% of the 2R,4R/2S, 4S enantiometric pair and 4% of the 2R,4S/2S,4R enantiometric pair) in phosphate/citrate buffers having a pH of 2.5, 3.0, and 4.0 was examined after storage at 40° C. The stability of monatin was compared to that of aspartame (400 ppm) in the same buffers. Three sucrose reference solutions were prepared in the same phosphate/citrate buffers as the monatin and aspartame solutions. All prepared solutions were stored in the dark.
The sweetness of each sweetener relative to sucrose was assessed in duplicate by a panel (n=8) of trained sensory evaluators experienced in the sweetness estimation procedure. All samples (in the same buffers) were served in duplicate at a temperature of 22° C.±1° C. Monatin (test) solutions, coded with 3 digit random number codes were presented individually to panelists, in random order. Sucrose reference standards, ranging from 4.0-10.0% (w/v) sucrose, increasing in steps of 0.5% (w/v) sucrose were also provided. Panelists were asked to estimate sweetness by comparing the sweetness of the test solution to the sucrose standards. This was carried out by taking 3 sips of the test solution, followed by a sip of water, followed by 3 sips of sucrose standard followed by a sip of water, etc. Panelists were encouraged to estimate the sweetness to one decimal place, e.g., 6.8, 8.5. A five minute rest period was imposed between evaluating the test solutions. Panelists were also asked to rinse well and eat a cracker to reduce any potential carry over effects.
If a pseudo-first order breakdown reaction is assumed, a plot of logn percentage retention versus time (logn % RTN v. t) allows estimation of the half-life (t½) and rate constant (k) of sweetness loss under any given set of conditions. In so doing, the kinetics of monatin and aspartame sweetness loss may be summarized as follows in Table 14.

[3] = Sweetness comparison procedure against sucrose reference solutions (sensory panel); format: in vivo; settings: experienced sensory evaluators
Method: The S,S stereoisomer of monatin is approximately 50-200 times sweeter than sucrose by weight. The R,R stereoisomer of monatin is approximately 2000-2400 times sweeter than sucrose by weight. The sweetness of the monatin is calculated using experienced sensory evaluators in a sweetness comparison procedure, where a test sweetener solution is matched for sweetness intensity against one of a series of reference solutions.
Specifically, one may assess sweetness of a sweetener relative to sucrose by using a panel of trained sensory evaluators experienced in the sweetness estimation procedure. All samples (in same buffers) are served in duplicate at a temperature of 22° C.±1° C. Sample solutions may be prepared, for example, using a buffer comprising 0.16% (v/w) citric acid and 0.02% (v/w) sodium citrate at ˜pH 3.0. Test solutions, coded with 3 digit random number codes, are presented individually to panelists, in random order. Sucrose reference standards, ranging from 2.0-10.0% (w/v) sucrose, increasing in steps of 0.5% (w/v) sucrose are also provided. Panelists are asked to estimate sweetness by comparing the sweetness of the test solution to the sucrose standards. […]
Sucrose equivalent value (SEV) (e.g., % sucrose), determined by the panel of trained sensory evaluators, is plotted as a function of monatin concentration to obtain a dose response curve. […]

## OC[C@H]1O[C@H](O[C@]2(CCl)O[C@H](CCl)[C@@H](O)[C@@H]2O)[C@H](O)[C@@H](O)[C@H]1Cl [Sucralose]
[1]
  Comments: sweetness and flavor profile: Delay in sweetness onset means first

## COC(=O)[C@H](Cc1ccccc1)NC(=O)[C@@H](N)CC(=O)O [Aspartame, reference compound] (H-Asp-Phe-OMe)
[1]
  Comments: flavor enhancement (lemon flavor notes): tea flavor. No evidence of flavor
  Comments: sweetness and flavor profile: Good temporal characteristics although
[2]; pH 2.5
  Rate constant (k) of sweetness loss: 0.013 day⁻¹
  Sweetness Retained: 11%
[2]; pH 2.5, day 0
  SEV Aspartame: 7.34 % sucrose
[2]; pH 2.5, day 1
  Retention of Aspartame Sweetness: 94.0%
  SEV Aspartame: 6.90 % sucrose
[2]; pH 2.5, day 2
  Retention of Aspartame Sweetness: 92.6%
  SEV Aspartame: 6.80 % sucrose
[2]; pH 2.5, day 3
  Retention of Aspartame Sweetness: 89.9%
  SEV Aspartame: 6.60 % sucrose
[2]; pH 2.5, day 4
  Retention of Aspartame Sweetness: 85.7%
  SEV Aspartame: 6.29 % sucrose
[2]; pH 2.5, day 7
  Retention of Aspartame Sweetness: 81.9%
  SEV Aspartame: 6.01 % sucrose
[2]; pH 2.5, day 8
  Retention of Aspartame Sweetness: 81.5%
  SEV Aspartame: 5.98 % sucrose
[2]; pH 2.5, day 9
  Retention of Aspartame Sweetness: 81.3%
  SEV Aspartame: 5.97 % sucrose
[2]; pH 2.5, day 11
  Retention of Aspartame Sweetness: 79.8%
  SEV Aspartame: 5.86 % sucrose
[2]; pH 2.5, day 50
  Retention of Aspartame Sweetness: 57.1%
  SEV Aspartame: 4.19 % sucrose
[2]; pH 2.5, day 100
  Retention of Aspartame Sweetness: 10.9%
  SEV Aspartame: 0.80 % sucrose
[2]; pH 3.0
  Rate constant (k) of sweetness loss: 0.009 day⁻¹
  Sweetness Retained: 31%
[2]; pH 3.0, day 0
  SEV Aspartame: 7.15 % sucrose
[2]; pH 3.0, day 1
  Retention of Aspartame Sweetness: 96.5%
  SEV Aspartame: 6.90 % sucrose
[2]; pH 3.0, day 2
  Retention of Aspartame Sweetness: 96.1%
  SEV Aspartame: 6.87 % sucrose
[2]; pH 3.0, day 3
  Retention of Aspartame Sweetness: 92.3%
  SEV Aspartame: 6.60 % sucrose
[2]; pH 3.0, day 4
  Retention of Aspartame Sweetness: 89.9%
  SEV Aspartame: 6.43 % sucrose
[2]; pH 3.0, day 7
  Retention of Aspartame Sweetness: 86.3%
  SEV Aspartame: 6.17 % sucrose
[2]; pH 3.0, day 8
  Retention of Aspartame Sweetness: 82.9%
  SEV Aspartame: 5.93 % sucrose
[2]; pH 3.0, day 9
  Retention of Aspartame Sweetness: 83.1%
  SEV Aspartame: 5.94 % sucrose
[2]; pH 3.0, day 11
  Retention of Aspartame Sweetness: 81.5%
  SEV Aspartame: 5.83 % sucrose
[2]; pH 3.0, day 50
  Retention of Aspartame Sweetness: 65.9%
  SEV Aspartame: 4.71 % sucrose
[2]; pH 3.0, day 100
  Retention of Aspartame Sweetness: 30.8%
  SEV Aspartame: 2.20 % sucrose
[2]; pH 4.0
  Rate constant (k) of sweetness loss: 0.005 day⁻¹
  Sweetness Retained: 58%
[2]; pH 4.0, day 0
  SEV Aspartame: 7.10 % sucrose
[2]; pH 4.0, day 3
  Retention of Aspartame Sweetness: 95.1%
  SEV Aspartame: 6.75 % sucrose
[2]; pH 4.0, day 8
  Retention of Aspartame Sweetness: 87.8%
  SEV Aspartame: 6.23 % sucrose
[2]; pH 4.0, day 11
  Retention of Aspartame Sweetness: 84.8%
  SEV Aspartame: 6.02 % sucrose
[2]; pH 4.0, day 17
  Retention of Aspartame Sweetness: 81.0%
  SEV Aspartame: 5.75 % sucrose
[2]; pH 4.0, day 24
  Retention of Aspartame Sweetness: 82.4%
  SEV Aspartame: 5.85 % sucrose
[2]; pH 4.0, day 50
  Retention of Aspartame Sweetness: 74.5%
  SEV Aspartame: 5.29 % sucrose
[2]; pH 4.0, day 100
  Retention of Aspartame Sweetness: 57.7%
  SEV Aspartame: 4.10 % sucrose

## NC(CC(O)(Cc1c[nH]c2ccccc12)C(=O)O)C(=O)O (single isomer, unassigned) [S,S stereoisomer of monatin]
[3]
  sweetness relative to sucrose by weight: 50-200 times sweeter than sucrose

## N[C@@H](C[C@@](O)(Cc1c[nH]c2ccccc12)C(=O)O)C(=O)O (single isomer, unassigned) [R,R stereoisomer of monatin]
[3]
  sweetness relative to sucrose by weight: 2000-2400 times sweeter than sucrose
